Test results: patent US9173893B2, “Purine nucleoside monophosphate prodrugs for treatment of cancer and viral infections” (Cocrystal Pharma, Inc., priority 2009, dated 2015)
Entries after “also recorded” stand apart in the source; their conditions may differ. Where two headings read alike, the source gives them in different places. One block for each molecule: values may come before it.

How the values were obtained:
[1] = system: MT-2 cells; assay: Analysis of intracellular nucleotides formed in MT-2 cells; format: in vitro ADME
[2] = system: human peripheral blood mononuclear (PBM) cells; assay: LC/MS analysis of nucleotides formed after incubation in PBM cells; format: in vitro ADME; conditions: for nucleosides/nucleotides detected by LC/MS / species not detected by LC/MS: 50 μM
[3] = system: adenosine deaminase; assay: Adenosine deaminase assay (deamination of nucleosides); format: in vitro ADME
Experimental: To determine the propensity for deamination of the 6-substituted-2-amino purine nucleoside monophosphate prodrugs by adenosine deaminase, nucleoside compounds were incubated with the commercially available purified enzyme, and the reaction was followed spectrophotometrically. Reaction conditions were 50 mM potassium phosphate, pH 7.4, with 50 μM nucleoside analog in 0.5 mL at 25° C. Reaction time was 7 minutes with 0.002 units of enzyme and 120 minutes with 0.2 units of enzyme. (The unit definition of adenosine deaminase is one unit will deaminate 1.0 μmol of adenosine to inosine per minute at pH 7.5 at 25° C.) Deoxyadenosine was the positive control which was 59% deaminated under the given conditions in 7 minutes with 0.002 units of enzyme. Deoxyguanosine was the negative control. Optical density was measured at 265 nm or 285 nm. The difference in optical density between the beginning and the end of the experiment was divided by the extinction coefficient then multiplied by the volume of the reaction to determine the number of mols of substrate transformed into product. Mols of product were divided by mols of substrate equivalent to a 100% complete reaction then multiplied by 100 to obtain percent deamination. The limit of detection was 0.001 optical density units.

[4] = system: Vero cells; assay: Cytotoxicity assay in Vero cells; conditions: Chlorocebus sabaeus, read-out: Vero IC50
[5] = system: HIV-1LAI; assay: Anti-HIV (in PBM cells) assay; format: cell-based; conditions: Human immunodeficiency virus 1, PBMC; for EC50: read-out: HIV EC50; for EC90: read-out: HIV EC90
Experimental: Stock solutions (20-40 mM) of the compounds were prepared in sterile DMSO and then diluted to the desired concentration in growth medium. Cells were infected with the prototype HIV-1LAI at a multiplicity of infection of 0.01. Virus obtained from the cell supernatant was quantified on day 6 after infection by a reverse transcriptase assay using (rA)n·(dT)12-18 as template-primer. The DMSO present in the diluted solution (<0.1%) had no effect on the virus yield. AZT was included as positive control.

[6] = system: human PBM cells; assay: Cytotoxicity assay in PBM cells
[7] = system: CEM cells; conditions: previous study; cited from earlier work
[8] = system: CEM (human lymphoblastoid) cells; assay: Cytotoxicity assay in CEM cells; conditions: Lymphoblastoid cell, read-out: CEM IC50
[9] = system: PHA-stimulated human PBMCs; conditions: cited from earlier work
[10] = system: HepG2 cells; conditions: HepG2 cells incubated with 10 μM; cited from earlier work
[11] = 50 μM nucleoside analog, 50 mM potassium phosphate pH 7.4, 25° C.
[12] = human PBM cells, RS-788 n = 3, RS-864 n = 2

SMILES: [N-]=[N+]=N[C@H]1C[C@H](n2cnc3c(=O)[nH]c(N)nc32)O[C@@H]1CO [AZG]
concentration at which phosphorylation reaches steady state ([1]; MT-2, four different concentrations): 30 µM

SMILES: C=CCNc1nc(N)nc2c1ncn2[C@H]1CC(N=[N+]=[N-])[C@@H](CO)O1 (stereo partly shown) [Compound 62]
nucleosides/nucleotides detected by LC/MS ([2]; human, 4 h): RFS-457-DP and RFS-457-TP | species not detected by LC/MS ([2]; human, 4 h): No RFS-427, RFS-427-MP, RFS-427-DP, or RFS-427-TP were detected

SMILES: [N-]=[N+]=NC1C[C@H](n2cnc3c(NC4CC4)nc(N)nc32)O[C@@H]1CO (stereo partly shown) [Compound 72]
nucleosides/nucleotides detected by LC/MS ([2]; human, 4 h): RFS-457-DP and RFS-457-TP | species not detected by LC/MS ([2]; human, 4 h): No RFS-512, RFS-512-MP, RFS-512-DP, or RFS-512-TP were detected

SMILES: Nc1nc(N)c2ncn([C@H]3CO[C@@H](CO)O3)c2n1 [DAPD, (−)-β-D-2,6-diaminopurine dioxolane, reference compound]
IC50 [4]: > 100 µM | EC50 [5, 12]: 1 µM | EC90 [5, 12]: 6.5 µM | IC50 ([6]; Homo sapiens, PBMC, read-out: PBM IC50): > 100 µM | intracellular metabolism [7]: readily deaminate to (−)-D-dioxolane guanine (DXG); also recorded: No phosphorylation of DAPD to the corresponding mono-, di-, or triphosphate forms was detected | IC50 [8]: > 100 µM | DAPD levels in PBMCs relative to CEM cells ([9]; Antimicrob. Agents Chemother. 2001, 45, 158-165): 27 fold | intracellular metabolism ([9]; PHA-stimulated human PBMCs, previous study): readily deaminate to (−)-D-dioxolane guanine (DXG); also recorded: No phosphorylation of DAPD to the corresponding mono-, di-, or triphosphate forms was detected

SMILES: CCOC(=O)[C@H](C)NP(=O)(OC[C@@H]1OC[C@H](n2cnc3c(N)nc(N)nc32)O1)Oc1ccccc1 (stereo partly shown) [RS-864]
IC50 [4]: > 100 µM | EC50 [5]: 0.24 µM | EC90 [5]: 1.3 µM | PBM IC50 printed as percent at a single concentration ([6]; @ 100 μM): 66.5% @ 100 μM | IC50 [8]: > 100 µM | nucleosides/nucleotides detected by LC/MS ([2]; PBM cells, 4 hr incubation): low levels of DXG, DXG-MP, and DXG-TP; also recorded: very high levels of DAPD-TP; also recorded: low levels of DAPD, DAPD-MP, DAPD-DP

SMILES: O=c1[nH]c(=O)n([C@@H]2O[C@H](CO)[C@@H](O)[C@@H]2F)cc1I [fialuridine, 1,2′-deoxy-2′-fluoro-1-D-arabinofuranosly-5-iodo-uracil]
mitochondrial morphology in electron micrographs [10]: enlarged mitochondria with morphological changes consistent with mitochondrial dysfunction

Now from value to molecule, other results behind:

Conversion to the G analog by / stability to adenosine deaminase ([3]; under the conditions tested): stable to adenosine deaminase
SMILES: CN(C)c1nc(N)nc2c1ncn2[C@H]1CC(N=[N+]=[N-])[C@@H](CO)O1 (stereo partly shown) [Compound 69]

nucleosides/nucleotides detected by LC/MS ([2]; human, 4 h): RFS-506-DP, RFS-457-DP, and RFS-457-TP
SMILES: COc1nc(N)nc2c1ncn2[C@H]1CC(N=[N+]=[N-])[C@@H](CO)O1 (stereo partly shown) [Compound 70]
species not detected by LC/MS ([2]; human, 4 h): No RFS-506, RFS-506-MP, or RFS-506-TP were detected

Deamination in 7 min (0.002 units Adenosine Deaminase) [3, 11]: 12.81 ± 1.57% | Deamination in 120 min (0.2 units Adenosine Deaminase) [3, 11]: 240.53 ± 5.86% | AZG-TP levels compared with AZG treatment ([2]; PBM cells, 4 hr at 50 μM): higher | nucleosides/nucleotides detected by LC/MS ([2]; human, 4 h): RFS-457-TP | level of unchanged drug detected ([1]; MT-2 cells treated with drug for 30 min): Negligible levels of 6415 | nucleosides/nucleotides detected ([1]; MT-2 cells, 50 μM, 4 hr): converted to AZG and AZG-TP | AZG-TP levels compared with AZG treatment ([1]; MT-2 cells, 4 hr at 50 μM): higher
SMILES: [N-]=[N+]=NC1C[C@H](n2cnc3c(Cl)nc(N)nc32)O[C@@H]1CO (stereo partly shown) [Compound 6415]
species not detected by LC/MS ([2]; human, 4 h): Neither Compound 6415 nor its phosphates were detected
